Consider 20 compounds from patent publication US4826994A, “Production of substituted 1,3,4,9-tetrahydropyrano(3,4-B)indole-1-acetic acids” (American Home Products Corporation, priority 1988, dated 1989).

A short description of assay [1]: Drug Effects on Phenylbenzoquinone-induced Writhing in Mice. It counts as in vivo, Male Swiss albino mice. As to conditions: for inhibition in vivo at 25 mg/kg / ED50: Mus musculus, po; for inhibition in vivo at 25 mg/kg: read-out: Phenylquinone Writhing in Mice, percent inhibition; for ED50: value in parentheses, read-out: Phenylquinone Writhing in Mice, ED50. As to the method:
A further test used to determine the utility of the compounds of the present invention is designated: Drug Effects on Phenylbenzoquinone-induced Writhing in Mice
The objective of this test is to determine the ability of test drugs to inhibit the nociceptive (pain) response of mice injected with a chemical irritant. This test is a primary screen for both peripheral and centrally acting analgesic drugs.
Male Swiss albino mice (15-25 g). The animals are fasted for 18 hours prior to use but have free access to water.
Drug Preparation and Administration:
Drugs are dissolved or suspended according to their solubility in 0.5% Tween 80 in distilled water. They are administered by gastric gavage in a volume of 5 mL/kg. For primary screening all drugs are administered at the arbitrary dosage of 25 mg/kg, p.o. to a group of 10 mice.
A modification of the method of Siegmund et al, Proc. Soc. Exp. Biol. Med., 95, 729-731 (1957) is used. Groups of 5 mice are dosed with the test compound or vehicle control. Sixty minutes later the animals are injected i.p. with 0.3 mL/20 g body weight of a 0.02% solution of phenylbenzoquinone (PBQ; 2-phenyl-1,4-benzoquinone) and placed in individual observation boxes. The number of writhing or abdominal squirming movements made by each mouse during the following 15 min. period is counted. The experiment is repeated with another group of 5 mice and the mean number of writhes per mouse for a group of 10 mice is calculated.
Drug treated and vehicle-treated control groups are compared and the percentage protection conferred by the drug is calculated: [formula] where c=mean number of writhes in the control group where t=mean number of writhes in the test drug group

A short description of assay [2]: Preventative Adjuvant Edema (acute anti-inflammatory effect in rats). The assay is classed as in vivo, Male Sprague Dawley rats. As to conditions: for Preventative Adjuvant Edema, percent inhibition / inhibition in vivo at 25 mg/kg: 25 mg/kg, p.o.; for inhibition in vivo at 25 mg/kg: read-out: Preventative Adjuvant Edema, percent inhibition. Here is the method:
This test is a primary screen for anti-inflammatory drugs.
Male Sprague Dawley rats (180-200 g) are used. The animals have free access to water but food is withdrawn 18 hours before testing.
Drug Preparations and Administration:
Freund's complete adjuvant is prepared by suspending 5 mg of killed and dried Mycobacterium butyricum (Difco) in 1 mL mineral oil. The test compounds are dissolved, of suspended in 0.5% Tween 80 in distilled water according to their solubility. For primary screening all drugs are administered by gastric lavage at the arbitrary dosage of 25 mg/kg, p.o. in a volume of 0.5 mL/100 g body weight to groups of 10 animals.
The method is essentially that described by Wax et al, J. Pharmacol. Exp. Ther., 192, 166-171 (1975). Groups of rats are injected intradermally in the left hind paw with 0.1 mL of Freund's complete adjuvant. The test compound or vehicle is administered immediately before the adjuvant, 24 hours and 48 hours after the adjuvant (days 0, 1 and 2). The injected hind paw volume is measured before the injection of adjuvant and 24 hrs. after the last drug administration (day 3) by means of a plethysmometer (Buxco Electronics Inc.). The difference between the hind paw volume on day 0 and day 3 represents the edema volume. Etodolac (25 mg/kg, p.o.) is included as a positive control.
The mean edema volume (expressed as mL±SEM) is calculated for each group and the percentage protection conferred by the drug is calculated: [formula] where c is the mean edema volume for the vehicle-treated (0.5% Tween 80 in distilled water) controls and t is the mean edema volume for the drug treated group.

Regarding `CCC1(CC(=O)O)OCC(Cc2ccccc2)c2c1[nH]c1ccccc21` (single isomer, unassigned; isomer b) [Example 3, 1-Ethyl-1,3,4,9-tetrahydro-4-(phenylmethyl)-pyrano[3,4-b]indole-1-acetic Acid (Isomer B)], the inhibition in vivo at 25 mg/kg in assay [1] (25 mg/kg, p.o.) turned out to be 19%.
For the compound `CCC1(CC(=O)O)OCC(Cc2ccccc2)c2c1[nH]c1c(Cl)ccc(C)c21` (single isomer, unassigned) [Example 23, 8-chloro-1-ethyl-1,3,4,9-tetrahydro-5-methyl-4-(phenylmethyl)-pyrano[3,4-b]indole-1-acetic acid], the “Preventative Adjuvant Edema, percent inhibition” value in assay [2] is recorded as 0%. Moreover, the ED50 in assay [1] is 1.4 mg/kg.
On to `CCC1(CC(=O)O)OCC(Cc2ccccc2)c2c1[nH]c1cc(Cl)ccc21` (single isomer, unassigned) [Example 34, 7-chloro-1-ethyl-1,3,4,9-tetrahydro-4-(phenylmethyl)-pyrano[3,4-b]indole-1-acetic acid], for which the ED50 in assay [1] was found to be 1.4 mg/kg.
`CCC1(CC(=O)O)OCC(Cc2ccc(Cl)cc2)c2c1[nH]c1ccccc21` (single isomer, unassigned) [Example 40]: the inhibition in vivo at 25 mg/kg in assay [2] (Rattus norvegicus, po, 72 h) came out at 60%; in assay [1] (25 mg/kg, p.o.), 47%.
With `C=CCC1COC(CC)(CC(=O)O)c2[nH]c3c(C)c(F)ccc3c21` (single isomer, unassigned; isomer a) [Example 6, 1-Ethyl-7-fluoro-1,3,4,9-tetrahydro-8-methyl-4-(2-propenyl)pyrano[3,4-b]indole-1-acetic Acid (Isomer A)], the 50% effective dose (ED50) in assay [2] (Rattus norvegicus, po, 72 h, value in parentheses) was 3.2 mg/kg; in assay [1], 18 mg/kg.
With `C=CCC1COC(CC)(CC(=O)O)c2[nH]c3c(C)c(Cl)ccc3c21` (single isomer, unassigned) [Example 17, 7-chloro-1-ethyl-1,3,4,9-tetrahydro-8-methyl-4-(2-propenyl)-pyrano[3,4-b]indole-1-acetic acid], the inhibition in vivo at 25 mg/kg in assay [2] (Rattus norvegicus, po, 72 h) turned out to be 44%; in assay [1] (25 mg/kg, p.o.), 11%.
The corresponding values for `C=CCC1COC(CC)(CC(=O)O)c2[nH]c3c(CCC)cccc3c21` (single isomer, unassigned) [Example 13, 1-ethyl-1,3,4,9-tetrahydro-4-(2-propenyl)-8-propyl-pyrano[3,4-b]indole-1-acetic acid] are 36% and 2%.
On to `CCC1(CC(=O)O)OCC(Cc2ccccc2)c2c1[nH]c1c(C)ccc(Cl)c21` (single isomer, unassigned) [Example 29, 5-chloro-1-ethyl-1,3,4,9-tetrahydro-8-methyl-4-(phenylmethyl)-pyrano[3,4-b]indole-1-acetic acid], for which, in assay [1], the ED50 came to 3.2 mg/kg.
Turning to `C=CCC1COC(CC)(CC(=O)O)c2[nH]c3c(CC)cccc3c21` (single isomer, unassigned) [Example 11, 1,8-diethyl-1,3,4,9-tetrahydro-4-(2-propenyl)-pyrano[3,4-b]indole-1-acetic acid], the inhibition in vivo at 25 mg/kg came out at 55% in assay [2] (Rattus norvegicus, po, 72 h) and 11% in assay [1] (25 mg/kg, p.o.).
For `CCC1(CC(=O)O)OCC(Cc2ccccc2)c2c1[nH]c1c(Cl)ccc(C)c21` (single isomer, unassigned) [Example 24, 8-chloro-1-ethyl-1,3,4,9-tetrahydro-5-methyl-4-(phenylmethyl)-pyrano[3,4-b]indole-1-acetic acid], the “Preventative Adjuvant Edema, percent inhibition” value in assay [2] was determined as 2%. Further, the inhibition in vivo at 25 mg/kg in assay [1] (25 mg/kg, p.o.) was determined as 0%.
The matching figures for `CCC1(CC(=O)O)OCC(Cc2ccccc2)c2c1[nH]c1c(C)c(Cl)ccc21` (single isomer, unassigned) [Example 20, 7-chloro-1-ethyl-1,3,4,9-tetrahydro-8-methyl-4-(phenylmethyl)-pyrano[3,4-b]indole-1-acetic acid]: 34% and 11%.
On to `C=CCC1COC(CC)(CC(=O)O)c2[nH]c3ccccc3c21` (single isomer, unassigned) [Example 14], for which the inhibition in vivo at 25 mg/kg in assay [2] (Rattus norvegicus, po, 72 h) came to 46%; in assay [1] (25 mg/kg, p.o.), 21%.
As to `C=CCC1COC(CC)(CC(=O)O)c2[nH]c3ccccc3c21` (single isomer, unassigned) [Example 15], the “Preventative Adjuvant Edema, percent inhibition” value in assay [2] is on record as 30%. For the same compound, the “Phenylquinone Writhing in Mice, percent inhibition” value in assay [1] (25 mg/kg, p.o.) worked out at 25%.
For `CCC1(CC(=O)O)OCC(Cc2ccc(OC)cc2)c2c1[nH]c1ccccc21` (single isomer, unassigned) [Example 41], the inhibition in vivo at 25 mg/kg in assay [1] (25 mg/kg, p.o.) came to 30%.
For `CCC1(CC(=O)O)OCC(Cc2ccccc2)c2c1[nH]c1c(C)cccc21` (single isomer, unassigned) [Example 21, 1-ethyl-1,3,4,9-tetrahydro-8-methyl-4-(phenylmethyl)-pyrano[3,4-b]indole-1-acetic acid], the inhibition in vivo at 25 mg/kg in assay [2] (Rattus norvegicus, po, 72 h) is 40%; in assay [1] (25 mg/kg, p.o.), 11%.
Take `CCC1(CC(=O)O)OCC(Cc2ccccc2)c2c1[nH]c1ccc(Br)cc21` (single isomer, unassigned) [Example 25, 6-bromo-1-ethyl-1,3,4,9-tetrahydro-4-(phenylmethyl)-pyrano[3,4-b]indole-1-acetic acid]: the ED50 in assay [1] was found to be 3.1 mg/kg.
With `C=CCC1COC(CC)(CC(=O)O)c2[nH]c3c(C)c(F)ccc3c21` (single isomer, unassigned; isomer b) [Example 7, 1-Ethyl-7-fluoro-1,3,4,9-tetrahydro-8-methyl-4-(2-propenyl)pyrano[3,4-b]indole-1-acetic Acid (Isomer B)], the inhibition in vivo at 25 mg/kg is 37% in assay [2] (Rattus norvegicus, po, 72 h) and 15% in assay [1] (25 mg/kg, p.o.).
For the compound `CCc1cccc2c3c([nH]c12)C(CC)(CC(=O)O)OCC3Cc1ccccc1` (single isomer, unassigned; isomer b) [Example 5, 1,8-Diethyl-1,3,4,9-tetrahydro-4-(phenylmethyl-pyrano[3,4-b]indole-1-aceticAcid (Isomer B)], the “Preventative Adjuvant Edema, percent inhibition” value in assay [2] was 4%.
On to `CCC1(CC(=O)O)OCC(Cc2ccccc2)c2c1[nH]c1ccc(Br)cc21` (single isomer, unassigned) [Example 26, 6-bromo-1-ethyl-1,3,4,9-tetrahydro-4-(phenylmethyl)-pyrano[3,4-b]indole-1-acetic acid], for which, in assay [1] (25 mg/kg, p.o.), the inhibition in vivo at 25 mg/kg came to 10%.
On to `C=CCC1COC(CC)(CC(=O)O)c2[nH]c3ccc(F)cc3c21` (single isomer, unassigned) [Example 27], for which, in assay [1] (25 mg/kg, p.o.), the inhibition in vivo at 25 mg/kg was 24%.
